Test results reported in the NIST ThermoML archive (doi:10.1016/j.tca.2010.05.012).

Assay: molar heat capacity at constant pressure
Conditions: Liquid, Large sample (1 g) DSC

CC(C)O [propan-2-ol]
molar heat capacity at constant pressure [J/K/mol]
Conditions | 100 kPa | 20000 kPa | 40000 kPa
253.15 K | 129.4 | 126.1 | 125.8
258.15 K | 130.6 | 128.3 | 127.3
263.15 K | 132.6 | 130.7 | 129.2
268.15 K | 135 | 133.4 | 131.5
273.15 K | 138 | 136.3 | 134
278.15 K | 141.4 | 139.4 | 136.8
283.15 K | 145.1 | 142.6 | 140
288.15 K | 148.9 | 146 | 143.3
293.15 K | 152.9 | 149.6 | 146.9
298.15 K | 157 | 153.3 | 150.7
303.15 K | 161.1 | 157.1 | 154.7
308.15 K | 165 | 161.1 | 159
313.15 K | 168.6 | 165 | 163.3
318.15 K | 171.9 | 169.1 | 167.8
323.15 K | 174.9 | 173.2 | 172.4
